Measured values from patent publication US11649208B2, “Compounds and methods for treating alcohol disorder” (SOPHROSYNE PHARMACEUTICALS LIMITED, priority 2021, dated 2023).
Values after ≈ are worked out from the molar mass of the structure shown. Where two headings read alike, the source gives them in different places. Values belong to the compound of their own block, whether it stands above or below them.

Columns and labels:
liver ALDH2 [1] = molecular target: T1, liver ALDH2 (Rattus norvegicus, UniProt P11884); test: 10-day rat Pharmacology study, liver ALDH2 activity following ethanol challenge; assay type: in vivo
T1 construct: from tissue; host or cells: liver (left lateral lobe) lysate of Sprague Dawley (CD-IGS) rats
T1 sequence (P11884 20-519): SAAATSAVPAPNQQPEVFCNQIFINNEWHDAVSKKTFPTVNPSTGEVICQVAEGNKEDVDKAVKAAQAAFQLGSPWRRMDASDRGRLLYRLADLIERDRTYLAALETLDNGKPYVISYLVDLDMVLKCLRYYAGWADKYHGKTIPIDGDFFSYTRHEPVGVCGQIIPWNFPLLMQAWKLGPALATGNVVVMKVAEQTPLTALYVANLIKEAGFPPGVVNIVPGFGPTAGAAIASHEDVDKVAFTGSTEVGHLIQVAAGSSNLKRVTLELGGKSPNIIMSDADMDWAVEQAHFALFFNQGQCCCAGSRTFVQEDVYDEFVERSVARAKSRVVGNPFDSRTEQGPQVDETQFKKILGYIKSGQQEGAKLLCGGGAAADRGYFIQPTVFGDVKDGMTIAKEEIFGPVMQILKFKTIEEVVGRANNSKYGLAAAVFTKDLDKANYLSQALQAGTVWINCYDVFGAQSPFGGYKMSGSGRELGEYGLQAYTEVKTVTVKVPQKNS
Procedure: (§1) Animals were respectively administered vehicle and Example 1-2 at dosages of 2, 6.5 or 12 mg/kg via tail vein injection, once daily for 1 day (Groups 1-4), once daily for 3 days (Groups 5-8), or once daily for 5 days (Groups 9-12). For Group 13, animals were administered 20 mg/kg (on Day 1) or 12 mg/kg (on Days 2-5) dose via tail vein injection, once daily for 5 days. In some studies, the animals were administered a compound described herein for 10 days. In some studies, the animals were administered a compound described herein for 12 days. In some studies, the study was carried out with administered the compounds described herein including Example 1-2 racemate, Example 1-2A, Example 1-21B, Example 1-11 racemate, Example 1-11A, and/or Example 1-11B at a dosage of about 0.5, 1, 2, 4, and 8 mg.
Ethanol (200PRF or 100% pure, non-denatured and no additives) was obtained from Fisher Scientific. The ethanol dosing solution was prepared fresh for each use. One (1) mL of ethanol was added to four (4) mL of saline (0.9% NaCl) in a glass vial and mixed by vortexing to create a uniform solution prior to administration. Animals were administered 20% ethanol at 1 g/kg (IP) 8 hours following the last dose of test article. Thirty (30) minutes following ethanol challenge, animals were euthanized with CO2. […]

liver ALDH2 [2] = molecular target: T1, liver ALDH2; test: In vivo ALDH2 enzymatic activity assay with disulfiram comparison, ethanol challenge (Example 3); parameters: species or system rats (Sprague Dawley); conditions: for statistical significance of ALDH2 inhibitions: 2 mg/kg, 6.5 mg/kg and 12 mg/kg IV QD; for dose-activity response of ALDH2 inhibition: 2, 6.5, 12 mg/kg IV QD 3 days; for onset of inhibition of ALDH2 activity: after only 3-day administration; for ALDH2 inhibition versus Disulfiram at 3.57 mg/kg/day PO: after three days at 2 mg/kg/day IV
Procedure: (§2) Eighty-eight (88) male Sprague Dawley (CD-IGS) were obtained from Charles River Laboratories. All animals were housed under controlled conditions of temperature (72±8° F.), relative humidity (30-70%) and a 12-hour light-dark cycle (light from 6:00 AM to 6:00 PM). All animals were allowed free access to standard rodent chow (PicoLab Rodent Diet 20) and water (reverse osmosis, 0.2 μM filtered). Animals had at least a 3-day acclimation period prior to study.
30 mL disulfiram formulation were prepared. 64.2 mg of disulfiram was completely dissolved in 6 mL of DMSO to render a mixture. 0.3 mL of Tween 80 was then slowly added to the mixture. To the resulting mixture, 23.7 mL of PBS (1×, pH 5.0) was slowly added while stirring to render a dosing formulation. The dosing formulation was a fine suspension at concentration of 2.14 mg/mL. The final concentrations for DMSO and […] were 20% v/v and 1% v/v, respectively.
The dosing formulations of Example 1-4A, Example 1-4B3, and Example 1-2 and difulfiram were prepared with PBS (pH 7.0) by thoroughly mixing via vortexing and sonication.
Ethanol challenge study design and dosing groups of Example 1-4A, Example 1-48, and Example 1-2 and difulfiram are as shown in Table 3.
Animals in Group 1 was administered vehicle (PBS) via tail vein injection, once daily for 3 days. Animals in Group 2 was administered vehicle (PBS) disulfiram at 3.57 mg/kg via oral gavage (PO) once daily for 3 days. Animals in Groups 3-11 were respectively administered Example 1-4A at 2, 6.5, and 12 mg/kg, Example 1-4B at 2, 6.5, and 12 mg/kg, or Example 1-2 at 2, 6.5, and 12 mg/kg via tail vein injection, once daily for 3 days.
Dosing volume (1 or 1.67 mL/kg) was calculated based on the individual body weight obtained prior to the first dose of test article.
Ethanol (200PRF or 100% pure, non-denatured and no additives) was obtained from Fisher Scientific. Ethanol dosing solution (20% v/v in saline) was prepared by mixing one (1) part of ethanol and four (4) part of saline (0.9% NaCl) thoroughly to create a uniform solution prior to administration. Animals was administered 20% ethanol at 1 g/kg (IP) 8 hours following the third dose of test article. Thirty (30) minutes following ethanol challenge, animals were euthanized with CO2. About 2 mL of whole blood was rapidly collected via vena cava for generation of plasma samples. Blood samples were placed into K2 EDTA tubes and kept on wet ice prior to processing. Liver lysate generation, protein concentration determination, and ALDH2 activity assay were performed by Confluence Discovery Technologies (CDT). Protein concentrations were determined using the Pierce BCA Protein Assay Kit. ALDH2 Activity Assay using the Abcam assay kit #ab115348.

liver ALDH2 [3] = molecular target: T1, liver ALDH2; test: as above; parameters: species or system rats (Sprague Dawley); conditions: 2 mg/kg, 6.5 mg/kg and 12 mg/kg IV QD; printed 'after 5 days'
liver ALDH2 [4] = molecular target: T1, liver ALDH2; test: In vivo ALDH2 enzymatic activity assay, ethanol challenge (Example 2); parameters: species or system rats (Sprague Dawley)
Procedure: as §2, with “Sixty (60)” for “Eighty-eight (88)”, “male and sixty (60) female” for “male”
Example 1-2 was synthesized by PharmAgra Labs, Lot #489PAL97; and stored at 4° C. and protected from light upon receipt. Example 1-2 dosing solutions were prepared by dissolving in PBS (pH 7.0) and thoroughly mixing via vortexing and sonication.
Example 1-15 was synthesized by PharmAgra Labs, Lot #505PAL17; and stored at 4° C. and protected from light upon receipt. Example 1-15 dosing solution was prepared by dissolving in PBS (pH 7.0) and thoroughly mixing via vortexing and sonication. The dosing formulation at concentration of 20 mg/mL was a clear solution.
Body weights of the animals in Groups 1-4 were obtained on Day 1. Body weights of the animals in Groups 5-8 were obtained on Days 1-3 respectively. Body weights of the animals in Groups 9-13 were obtained on Days 1, 4 and 5 respectively.
as §1
Dosing volume (1 or 0.6 mL/kg) was calculated based on the body weight of the individual animal obtained on Day 1 (all groups), Days 2-3 (Groups 5-8), and Days 4-5 (Groups 9-13).
Ethanol (200PRF or 100% pure, non-denatured and no additives) was obtained from Fisher Scientific. The ethanol dosing solution was prepared fresh for each use. One (1) mL of ethanol was added to four (4) mL of saline (0.9% NaCl) in a glass vial and mixed by vortexing to create a uniform solution prior to administration. Animals were administered 20% ethanol at 1 g/kg (IP) 8 hours following the last dose of test article. Thirty (30) minutes following ethanol challenge, animals were euthanized with CO2. About 7 mL of whole blood was rapidly collected via vena cava for generation of serum samples for assays (Acetaldehyde assay by GPL and ALDH2 activity and protein assay by Eurofins). Blood samples were placed into serum separator tubes and maintained at room temperature for at least 30 minutes to allow clot formation prior to processing.
The left lateral lobe of liver was harvested and rinsed in cold saline to render a sample that was snap frozen in liquid nitrogen. Samples were stored at −80° C. until shipment. […]
The obtained serum samples as described herein were measured in singlicate for Acetaldehyde concentration using the Acetaldehyde Colorimetric Assay Kit (BioAssay Systems, #EACT-100), in accordance with manufacturer's instructions. […]

[5] = Solubility in CHCl3, DCM and DMSO by SFC/UV; assay type: physicochemical; conditions: organic solvent or mixture, thermodynamic from solid, room temperature
Procedure: The solubility in chloroform (CHCl3), dichloromethane (DCM) and dimethyl sulfoxide (DMSO) was determined at room temperature up to 50 mg/mL by measuring the concentrations of the solutions using SFC/UV. […] 200 mg Example 1-11B was weighed individually into three separate vials. 4 mL DMSO, 6 mL CHCl3 and 6 mL DCM were pipetted into the three vials containing Example 1-11B. The solutions were mixed and sonicated for 10 minutes. The DMSO solution was clear, and an aliquot was taken and diluted 100 times using MeOH before being subjected to SFC analysis. The saturated CHCl3 and DCM solutions were centrifuged, and the clear solution was diluted 100 times using MeOH before being subjected to SFC analysis:
Solubility measurement of up to 50 mg/mL in DMSO, CHCl3 and DCM was requested. […] At 50 mg/mL, Example 1-11B was not completely dissolved in CHCl3 or DCM solutions. After mixing and sonication, a clear aliquot of each solution was taken, and the concentrations of Example 1-11B in CHCl3 and DCM were measured by SFC/UV using the DMSO solution as a reference.

SMILES: CCN(CC)C(=O)[S@+](C)[O-] (single isomer, unassigned; peak-1) [Example 1-2A, (S )-N, N-diethyl-1 - (methylsulfinyl)methanamide (Peak-1)]
ALDH2 inhibition, enantiomer versus other enantiomer (FIG. 12) (liver ALDH2 [1]; 10-day administration at 0.5, 1 and 2 mg/kg): greater ALDH2 inhibition compared the other enantiomer Example 1-2B

SMILES: C[S+]([O-])C(=O)N1CCC(O)CC1 (racemic) [Example 1-11, (4-hydroxypiperidin-1-yl)(methylsulfinyl)methanone]
ALDH2 inhibition versus pure enantiomer Example 1-11A (FIG. 12) (liver ALDH2 [1]; 10 day administration at 2, 4 and 8 mg/kg, material with 66 wt % of Example 1-11B): greater ALDH2 inhibition than the pure enantiomer Example 1-11A

SMILES: CCN(CC)C(=O)[S+]([O-])CC1CC1 (single isomer, unassigned; peak-2) [Example 1-4B, 1-((cyclopropylmethyl)sulfinyl)-N,N-diethylmethanamide (Peak-2)]
statistical significance of ALDH2 inhibitions (liver ALDH2 [2]): statistically significant | dose-activity response of ALDH2 inhibition (liver ALDH2 [2]): A dose-activity response was observed | onset of inhibition of ALDH2 activity (liver ALDH2 [2]): fast activity onset | ALDH2 inhibition versus Disulfiram at 3.57 mg/kg/day PO (liver ALDH2 [2]): greater inhibition | ALDH2 inhibition (FIG. 7) (liver ALDH2 [3]): showed ALDH2 inhibitions

SMILES: C[S@+]([O-])C(=O)N1CCC(O)CC1 [Example 1-11B, (S)-(4-hydroxypiperidin-1-yl)(methylsulfinyl)methanone]
solubility at 10 min ([5]; chloroform (CHCl3), SFC/UV, read-out: solubility in CHCl3): 12.4 mg/mL (≈ 64.8 mM) | solubility at 10 min ([5]; dichloromethane (DCM), SFC/UV, read-out: solubility in DCM): 12.3 mg/mL (≈ 64.3 mM) | solubility at 10 min ([5]; dimethyl sulfoxide (DMSO), tested up to 50 mg/mL, read-out: solubility in DMSO): > 50 mg/mL

Continued, in another order:

statistical significance of ALDH2 inhibitions (liver ALDH2 [2]): statistically significant | dose-activity response of ALDH2 inhibition (liver ALDH2 [2]): A dose-activity response was observed | onset of inhibition of ALDH2 activity (liver ALDH2 [2]): fast activity onset | ALDH2 inhibition versus Disulfiram at 3.57 mg/kg/day PO (liver ALDH2 [2]): greater inhibition | ALDH2 inhibition (FIG. 7) (liver ALDH2 [3]): showed ALDH2 inhibitions
SMILES: CCN(CC)C(=O)[S+](C)[O-] (racemic) [Example 1-2, N,N-diethyl-1-(methylsulfinyl)methanamide]
ALDH2 inhibition after one (1) day administration (liver ALDH2 [4]; 6.5 mg/kg and 12 mg/kg IV, 1 day): statistically significant ALDH2 inhibitions were observed | dose response and treatment-duration response in inhibiting ALDH2 activities (liver ALDH2 [4]; 2, 6.5 or 12 mg/kg tail vein injection QD for 1, 3 or 5 days, ethanol 1 g/kg IP 8 h after last dose): A dose response and a treatment-duration response were observed | ALDH2 inhibition, treatment for 3 and 5 days (liver ALDH2 [4]; all doses (2, 6.5, 12 mg/kg) IV QD for 3 and 5 days): statistically significant ALDH2 inhibitions at all doses | inhibition of liver ALDH2 activity (FIGS. 2 and 3) (liver ALDH2 [4]; dosages of 2 mg/kg, 6.5 mg/kg and 12 mg/kg IV QD): statistically significant effectiveness in inhibiting liver ALDH2 activity

ALDH2 inhibition activity in comparison with the negative control group (liver ALDH2 [4]; 20 mg/kg (Day 1), 12 mg/kg (Days 2-5) tail vein injection QD 5 days, ethanol challenge): did not show any inhibition activity | melting point: 71.2 to 74.5 °C
SMILES: CCN(CC)C(=O)[S+]([O-])CC[S+]([O-])C(=O)N(CC)CC (stereo not drawn) [Example 1-15, 1-1′-(ethane-1,2-diyldisulfinyl)bis(N,N-diethylmethanamide)]
